Data from patent US20240009191A1, “METHOD AND COMPOSITION FOR THE TREATMENT OF DISEASE” (DIMERIX BIOSCIENCE PTY LTD, priority 2019, published 2024).

What was measured:
[1] = biological target: T1, CXCR2 (Homo sapiens, UniProt P25025); test: BRET Gi coupling, CXCR2/Rluc8 and Venus/mGsi without HA-AT1R, HEK293FT cells; assay type: cell-based; settings: 100 nM CXCL8, 1 μM AngII, FIG. 1A
T1 sequence (P25025 1-360): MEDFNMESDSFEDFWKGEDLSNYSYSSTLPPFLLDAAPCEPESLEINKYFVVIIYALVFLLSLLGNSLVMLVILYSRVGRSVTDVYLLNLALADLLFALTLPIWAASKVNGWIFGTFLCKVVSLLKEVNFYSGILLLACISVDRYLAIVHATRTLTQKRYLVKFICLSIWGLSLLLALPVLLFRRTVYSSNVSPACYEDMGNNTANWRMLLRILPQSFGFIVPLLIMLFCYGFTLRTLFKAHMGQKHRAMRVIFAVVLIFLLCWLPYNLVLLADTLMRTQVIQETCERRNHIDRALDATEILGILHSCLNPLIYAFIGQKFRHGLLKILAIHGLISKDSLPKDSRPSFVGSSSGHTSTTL
Protocol: (§1) HEK293FT cells were seeded in 6-well plates at a density of approximately 700,000 cells/well and maintained at 37° C., 5% CO2 in Complete Media (DMEM containing 0.3 mg/ml glutamine, 100 IU/ml penicillin and 100 μg/ml streptomycin (Gibco/Thermo Fisher)) supplemented with 10% fetal calf serum (FCS; Bovogen). Transient transfections were carried out 24 h after seeding using FuGene6™ (Promega) according to manufacturer instructions. 24 h post-transfection, cells were washed with PBS, detached using 0.05% trypsin/0.53 mM EDTA, resuspended in HEPES-buffered phenol red free Complete Media containing 5% FCS and added to a poly-L-lysine-coated white 96-well microplate (Greiner Bio-One). 48 h post-transfection, bioluminescence resonance energy transfer (BRET) assays were carried out following pre-incubation of cells with EnduRen™ (Promega) at a final concentration of 30 μM, at 37° C., 5% CO2 for 2 h. BRET measurements were taken at 37° C. using the LUMlstar™ or CLARIOstar™ (BMG Labtech). Filtered light emissions were measured for 1 s in each of the ‘donor wavelength window’ (460-490 nm for LUMlstar™ or 410-490 nm for CLARIOstar™) and ‘acceptor wavelength window’ (520-550 nm for LUMlstar™ or 520-620 nm for CLARIOstar™).
The BRET signal observed between interacting proteins is normalized by subtracting the background BRET ratio. […]

[2] = biological target: T2, AT1R-CXCR2 heteromer (Homo sapiens, UniProt P25025+P30556); test: BRET trafficking of CXCR2/Rluc8 (Venus/Kras, Rab5, Rab8) with HA-AT1R, pre-treatment with vehicle or antagonists/inverse agonists; assay type: cell-based
T2 sequence (P25025 1-360): T1 sequence (P25025 1-360)
T2 sequence (P30556 1-359): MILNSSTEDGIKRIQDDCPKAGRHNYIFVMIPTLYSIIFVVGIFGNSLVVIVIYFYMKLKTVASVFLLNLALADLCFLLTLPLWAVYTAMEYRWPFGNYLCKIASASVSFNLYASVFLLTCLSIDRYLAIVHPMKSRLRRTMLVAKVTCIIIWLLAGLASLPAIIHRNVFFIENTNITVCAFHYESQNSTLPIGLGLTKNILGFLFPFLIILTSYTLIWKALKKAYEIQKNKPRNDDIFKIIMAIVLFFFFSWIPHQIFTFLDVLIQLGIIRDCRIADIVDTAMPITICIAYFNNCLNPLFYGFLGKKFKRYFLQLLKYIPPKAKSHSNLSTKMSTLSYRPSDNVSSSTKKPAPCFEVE
Protocol: as §1, with “Labtech).” for “Labtech). Filtered light emissions were measured for 1 s in each of the ‘donor wavelength window’ (460-490 nm for LUMlstar™ or 410-490 nm for CLARIOstar™) and ‘acceptor wavelength window’ (520-550 nm for LUMlstar™ or 520-620 nm for CLARIOstar™).”
For antagonist/inverse agonist assays, cells were pre-incubated with EnduRen for 1.5 hours, followed by the addition of vehicle or antagonists/inverse agonists (10 μM) for another 30 minutes.
The BRET signal observed between interacting proteins is normalized by subtracting the background BRET ratio. […] In the following examples, the second calculation will be used and the signal is described as ligand-induced BRET′. Furthermore, for data shown in FIGS. 4 to 20, all data points in a given set are corrected relative to the final data point prior to agonist treatment, which is fixed to zero. In keys on FIGS. 7 to 20, “>” means “followed by after 50 minutes”, with agonists added at time zero on the x-axes.
Prior to agonist treatment (added at 0 minutes), a baseline BRET signal was recorded for each of the combinations for 20 minutes. Data were calculated as ligand-induced BRET relative to the ‘vehicle followed by vehicle’ (veh>veh) data set.

Angiotensin II [AngII]
ligand-induced BRET signal, CXCR2/Rluc8 and Venus/mGsi [1]: did not result in an increase
proximity of CXCR2/Rluc8 to Venus/Kras (BRET) [2]: increased proximity
proximity of CXCR2/Rluc8 to Venus/Rab5 (BRET) [2]: very small increase
proximity of CXCR2/Rluc8 to Venus/Rab8 (BRET) [2]: clear increase
